Holding throughout (type): functional
Common to all, as to settings: read-out: DIZ

The subject of test [1] is Staphylococcus aureus. The experiment in a line: Antibacterial activity against Staphylococcus aureus at 0.06 mol/L after 12 to 24 hrs by paper disc method.
Test [2] deals with Penicillium citrinum. The experiment in a line: Antifungal activity against Penicillium citrinum at 0.25 mol/L after 2 to 4 days by paper disc method.
For test [3], the system named is Escherichia coli. The experiment in a line: Antibacterial activity against Escherichia coli at 0.25 mol/L after 12 to 24 hrs by paper disc method.
The test system of test [4] is Aspergillus niger. In words: Antifungal activity against Aspergillus niger at 0.03 mol/L after 2 to 4 days by paper disc method.
Test [5] concerns Aspergillus niger. The experiment in a line: Antifungal activity against Aspergillus niger at 0.06 mol/L after 2 to 4 days by paper disc method.
Test [6] relates to Staphylococcus aureus. In words: Antibacterial activity against Staphylococcus aureus at 0.13 mol/L after 12 to 24 hrs by paper disc method.
Test [7] deals with Aspergillus niger. The experiment in a line: Antifungal activity against Aspergillus niger at 0.25 mol/L after 2 to 4 days by paper disc method.
Test [8] concerns Escherichia coli. The experiment in a line: Antibacterial activity against Escherichia coli at 0.13 mol/L after 12 to 24 hrs by paper disc method.
For test [9], the system named is Staphylococcus aureus. In words: Antibacterial activity against Staphylococcus aureus at 0.03 mol/L after 12 to 24 hrs by paper disc method.
The subject of test [10] is Escherichia coli. The experiment in a line: Antibacterial activity against Escherichia coli at 0.06 mol/L after 12 to 24 hrs by paper disc method.
Test [11] deals with Penicillium citrinum. The experiment in a line: Antifungal activity against Penicillium citrinum at 0.03 mol/L after 2 to 4 days by paper disc method.
Test [12] has as its system Aspergillus niger. The experiment in a line: Antifungal activity against Aspergillus niger at 0.13 mol/L after 2 to 4 days by paper disc method.
The test system of test [13] is Staphylococcus aureus. The experiment in a line: Antibacterial activity against Staphylococcus aureus at 0.25 mol/L after 12 to 24 hrs by paper disc method.
For test [14], the system named is Penicillium citrinum. The experiment in a line: Antifungal activity against Penicillium citrinum at 0.13 mol/L after 2 to 4 days by paper disc method.
For test [15], the system named is Escherichia coli. The experiment in a line: Antibacterial activity against Escherichia coli at 0.03 mol/L after 12 to 24 hrs by paper disc method.
Test [16] relates to Penicillium citrinum. In words: Antifungal activity against Penicillium citrinum at 0.06 mol/L after 2 to 4 days by paper disc method.

For the molecule `CC(C)C[C@H](/N=C/C=C/c1ccc(Cl)cc1)C(=O)O`, the zone of inhibition at 60000 µM was 16.8 mm in [1], 18.7 mm in test [5], 10 mm in test [10] and 19.7 mm in [16]. In addition, the zone of inhibition at 250000 µM in test [2] turned out to be 28.3 mm; in test [3] it was 17 mm; in [7], 29.3 mm; in test [13] it was 28.3 mm. Besides, the zone of inhibition at 30000 µM in test [4] was found to be 18.3 mm; in test [9], 8.7 mm; in [11], 16.5 mm; in test [15], 9.3 mm. Moreover, the zone of inhibition at 130000 µM in [6] is 11 mm; in [8], 17.8 mm; in test [12] it was 20.7 mm; in test [14], 25.7 mm.
On to `O=C(O)[C@H](Cc1ccccc1)/N=C/C=C/c1ccc(Cl)cc1`, for which the zone of inhibition at 60000 µM in test [1] worked out at 13.3 mm; in test [5], 21 mm; in [10], 19 mm; in [16] it was 21 mm. Besides, the zone of inhibition at 250000 µM in test [2] is 35 mm; in test [3], 19.5 mm; in [7] it was 26 mm; in [13] it was 33 mm. Also, the zone of inhibition at 30000 µM in test [4] was determined as 12.3 mm; in test [9], 9 mm; in [11], 18.3 mm; in [15], 9.2 mm. Moreover, the zone of inhibition at 130000 µM in [6] was 29 mm; in test [8], 26 mm; in test [12], 19.7 mm; in test [14], 23.2 mm.
On to `O=C(O)[C@H](Cc1ccccc1)/N=C/C=C/c1ccccc1`, for which the zone of inhibition at 60000 µM is 8 mm in test [1], 8.7 mm in test [5], 8 mm in [10] and 8 mm in test [16]. In addition, the zone of inhibition at 250000 µM in [2] came to 10.7 mm; in test [3], 8 mm; in test [7], 10.7 mm; in test [13] it was 11 mm. The zone of inhibition at 30000 µM came to 8 mm in [4], 10 mm in [9], 8 mm in [11] and 8 mm in test [15]. Also, the zone of inhibition at 130000 µM in [6] is 8 mm; in test [8], 8 mm; in [12], 9.2 mm; in [14], 9.7 mm.
For the molecule `COc1ccc(/C=C/C=N/[C@@H](CC(C)C)C(=O)O)cc1`, the zone of inhibition at 60000 µM in test [1] stood at 8 mm; in [5], 10.5 mm; in test [10] it was 9.3 mm; in test [16], 10 mm. The zone of inhibition at 250000 µM came out at 17.7 mm in [2], 13 mm in [3], 19 mm in [7] and 10.8 mm in [13]. Besides, the zone of inhibition at 30000 µM worked out at 9.7 mm in test [4], 9.7 mm in [9], 12 mm in test [11] and 8 mm in test [15]. Further, the zone of inhibition at 130000 µM in test [6] was 8 mm; in test [8], 14 mm; in [12] it was 16 mm; in test [14] it was 12 mm.
Regarding `O=C(O)[C@H](Cc1ccc(O)cc1)/N=C/C=C/c1ccccc1`, the zone of inhibition at 60000 µM was 8 mm in test [1], 12.3 mm in test [5], 8 mm in [10] and 11 mm in [16]. The zone of inhibition at 250000 µM in test [2] stood at 12 mm; in test [3], 31.3 mm; in test [7], 12 mm; in test [13] it was 14.2 mm. In addition, the zone of inhibition at 30000 µM in test [4] stood at 8 mm; in [9], 8 mm; in [11], 12.3 mm; in [15], 12 mm. The zone of inhibition at 130000 µM in [6] was found to be 11.5 mm; in test [8] it was 19.5 mm; in test [12], 18.7 mm; in test [14], 11.5 mm.
`O=C(O)C/N=C/C=C/c1ccccc1`: the zone of inhibition at 60000 µM in [1] stood at 8 mm; in test [5], 9 mm; in test [10] it was 8 mm; in test [16], 11 mm. Moreover, the zone of inhibition at 250000 µM in test [2] was 10.3 mm; in [3], 9.3 mm; in test [7] it was 11 mm; in test [13], 11.7 mm. Also, the zone of inhibition at 30000 µM in test [4], in test [9], in test [11] and in [15] was 8 mm in each case. Moreover, the zone of inhibition at 130000 µM was 8 mm in [6], 8 mm in test [8], 8.7 mm in [12] and 10.7 mm in test [14].
With `O=C(O)C[C@H](/N=C/C=C/c1ccccc1)C(=O)O`, the zone of inhibition at 60000 µM in test [1] stood at 8 mm; in [5], 19.3 mm; in test [10], 12 mm; in [16] it was 14.8 mm. The zone of inhibition at 250000 µM in test [2] was found to be 40.7 mm; in test [3], 25 mm; in test [7], 29.7 mm; in [13] it was 18 mm. Also, the zone of inhibition at 30000 µM in test [4] came to 12.7 mm; in test [9], 8 mm; in test [11] it was 10.3 mm; in [15], 8 mm. The zone of inhibition at 130000 µM in test [6] worked out at 8 mm; in test [8], 17.3 mm; in test [12] it was 24 mm; in test [14], 28 mm.

Source of the values: ChEMBL document CHEMBL3751674, “Synthesis, antimicrobial activity of Schiff base compounds of cinnamaldehyde and amino acids” (2016).
